Reference: US20020061888A1, “Combination therapy for the prophylaxis and treatment of hyperlipidemic conditions and disorders” (priority 2000, published 2002)

Columns and labels:
Male beagle dogs [1] = test: Fecal bile acid concentration in beagle dogs (enzymatic 3α-hydroxysteroid dehydrogenase assay of fecal extracts); assay type: in vivo; conditions: for FECAL BILE ACID CONCENTRATION: n = 6; for % change in fecal bile acid: Week 2, footnote: vs pretreatment, text b128: vs vehicle
Protocol: Male beagle dogs (9-10 kg) obtained from Marshall farms were fed a normal chow diet once a day for a two hour interval and given water ad libitum. Prior to initiating treatment, the dogs were weighed and blood samples were drawn from the cephalic vein of each dog following an overnight fast to evaluate pretreatment serum total cholesterol levels at the start of the study. […] All doses were administered in gelatin capsules per os to each dog between 9:00-9:30 a.m. prior to feeding. All animals were fed between 9:30-10:00 a.m. and were allowed two hours to eat, at which time any remaining food was removed. […] Three consecutive 24 hour fecal samples were collected for each group during the last 72 hours of each week and used to measure the concentration of fecal biles acids excreted during that time period.
Fecal samples were collected to determine the fecal bile acid (“FBA”) concentration for each animal. Three consecutive 24 hour fecal samples were collected between 8:00 a.m. and 9:00 a.m. each day, prior to dosing and feeding, during the last 72 hour period of each week. The separate daily collections from each dog were weighed, combined and homogenized with distilled water in a food processor to generate a homogeneous slurry. A 1.4 g sample of fecal homogenate was extracted with 2.6 mL of a solution containing tertiary butanol:distilled water in the ratio of 2:0.6 (final concentration of 50% tertiary butanol v/v distilled water) for 45 minutes in a 37° C. water bath and centrifuged for 13 minutes at 2000 x g. The concentration of bile acids (μmoles/gram homogenate) was determined using a 96-well enzymatic assay system described in van der Meer et al., “t-Butanol Extraction of Feces: A Rapid Procedure For Enzymic Determination Of Fecal Bile Acids”, Cholesterol, Metabolism in Health and Disease: Studies in the Netherlands, edited by Beynen, et al., Ponsen and Looyen, Wageningen, 1985; and Turley et al., “Re-evaluation of the 3 Alpha-Hydroxysteroid Dehydrogenase Assay For Total Bile Acids In Bile”, J. Lipid Research, 19:924-928, 1978.
A 20 μL aliquot of each fecal extract was added to each of two sets of triplicate wells in a 96-well assay plate. A standardized sodium taurocholate solution and a standardized fecal extract solution (previously made from pooled samples and characterized for its bile acid concentration) were also analyzed for assay quality control. A standard curve of five points containing 30-540 nmoles/well was generated by serial dilutions of an initial 20 μL aliquot of 90 mM sodium taurocholate. A 230 μL aliquot of a reaction mixture containing 1M hydrazine hydrate, 0.1 M pyrophosphate and 0.46 mg/ml NAD was added to each well. Subsequently, a 50 μL aliquot of either 3α-hydroxysteroid dehydrogenase (“HSD”) enzyme (0.8 units/mL) or assay buffer (0.1 M sodium pyrophosphate) was then added to one each of the two sets of triplicates. Following 60 minutes of incubation at room temperature, the optical density at 340 nm was measured and the mean of each set of triplicate samples was calculated. The difference in optical density with and without HSD enzyme was used to determine the bile acid concentration (mM) of each sample based on the sodium taurocholate standard curve. The bile acid concentration of the extract (μmoles/gram homogenate), the total weight of the fecal homogenate (grams) and the body weight of the dogs (kg) were used to calculate the corresponding fecal bile acid concentration in μtmoles/kg/day for each animal.
All reagents used for the assay were obtained from Sigma Chemical Co., St. Louis, Mo. (HSD enzyme—catalog # H-1506; NAD—catalog # N1636; sodium taurocholate—catalog # T-4009).

Male beagle dogs [2] = test: Serum triglyceride in beagle dogs; assay type: in vivo; conditions: n = 6
Protocol: Following this initial four week dose-ranging study, dogs from the two groups receiving 10 mg/kg/day pravastatin (a.m. and p.m. dosing groups) were randomized into two new treatment groups based on serum total cholesterol levels to initiate the combination treatment study. […] Dosing continued in this manner for an additional four weeks (Weeks 5-8) with blood and 48-hour fecal samples collected at the end of each week for serum lipid measurements and fecal bile acid determinations, respectively. […] At the end of this three-week period, pravastatin dosing and all empty capsule dosing were discontinued and blood samples were collected weekly for a final three weeks (weeks 12-14) to monitor the return of serum total cholesterol levels back to baseline.
Blood was collected from the cephalic vein of each dog into serum separator tubes. The blood was centrifuged at 900×g for 20 minutes at room temperature and the serum decanted. All analyses were performed on a Cobas Mira Clinical Analyzer System (Roche Diagnostic Systems, Branchburg, N.J.) using Roche Diagnostic reagents for enzymatic determinations of serum cholesterol and triglycerides. Commercial calibrator and quality control materials were analyzed with each run to verify assay accuracy and precision. A two-tailed, paired Students t-test was used to determine the statistical significance of changes in total serum cholesterol in treated animals compared to their pretreatment values. A two-sample, two-tailed unequal variance Students t-test was used to determine serum total cholesterol and triglyceride changes in the combination therapy group compared to the monotherapy groups. […]

[3] = compound A-5 monotherapy 4.0 mg/kg/day, dosed Weeks 5-8, Week 5, mean ± SEM
[4] = compound A-5 monotherapy 4.0 mg/kg/day, dosed Weeks 5-8, Week 6, mean ± SEM
[5] = compound A-5 monotherapy 4.0 mg/kg/day, dosed Weeks 5-8, Week 7, mean ± SEM
[6] = compound A-5 monotherapy 4.0 mg/kg/day, dosed Weeks 5-8, Week 8, mean ± SEM
[7] = compound A-5 monotherapy group, dosing terminated after Week 8, Week 9, mean ± SEM
[8] = compound A-5 monotherapy group, dosing terminated after Week 8, Week 10, mean ± SEM

SMILES: CCCCC1(CC)CS(=O)(=O)c2ccc(N(C)C)cc2[C@@H](c2cccc(OCc3ccc(C[N+]45CCN(CC4)CC5)cc3)c2)[C@H]1O.[Cl-] (stereo partly shown) [Compound A-5]
- return of fecal bile acid levels to their pretreatment levels after the last day of compound A-5 dosing (Male beagle dogs [1]; Example 3, 4.0 mg/kg/day compound A-5 for four weeks, alone or with 10 mg/kg/day pravastatin): within one week
- FECAL BILE ACID CONCENTRATION (Male beagle dogs [1]; compound A-5 0.22 mg/kg/day per os, Week 1, mean ± SEM): 89 ± 9^3 μmol/day/kg
- % change in fecal bile acid (Male beagle dogs [1]; compound A-5 0.22 mg/kg/day per os): (270) %
- FECAL BILE ACID CONCENTRATION (Male beagle dogs [1]; compound A-5 0.22 mg/kg/day per os, Week 2, mean ± SEM): 100 ± 11^3 μmol/day/kg
- FECAL BILE ACID CONCENTRATION (Male beagle dogs [1]; compound A-5 0.22 mg/kg/day per os, Week 3, mean ± SEM): 81 ± 7^3 μmol/day/kg
- FECAL BILE ACID CONCENTRATION (Male beagle dogs [1]; compound A-5 0.66 mg/kg/day per os, Week 1, mean ± SEM): 134 ± 19^3 μmol/day/kg
- % change in fecal bile acid (Male beagle dogs [1]; compound A-5 0.66 mg/kg/day per os): (396) %
- FECAL BILE ACID CONCENTRATION (Male beagle dogs [1]; compound A-5 0.66 mg/kg/day per os, Week 2, mean ± SEM): 134 ± 16^3 μmol/day/kg
- FECAL BILE ACID CONCENTRATION (Male beagle dogs [1]; compound A-5 0.66 mg/kg/day per os, Week 3, mean ± SEM): 126 ± 12^3 μmol/day/kg
- FECAL BILE ACID CONCENTRATION (Male beagle dogs [1]; compound A-5 2.0 mg/kg/day per os, Week 1, mean ± SEM): 168 ± 13^3 μmol/day/kg
- % change in fecal bile acid (Male beagle dogs [1]; compound A-5 2.0 mg/kg/day per os): (411) %
- FECAL BILE ACID CONCENTRATION (Male beagle dogs [1]; compound A-5 2.0 mg/kg/day per os, Week 2, mean ± SEM): 138 ± 12^3 μmol/day/kg
- FECAL BILE ACID CONCENTRATION (Male beagle dogs [1]; compound A-5 2.0 mg/kg/day per os, Week 3, mean ± SEM): 164 ± 11^3 μmol/day/kg
- FECAL BILE ACID CONCENTRATION (Male beagle dogs [1]; compound A-5 6.0 mg/kg/day per os, Week 1, mean ± SEM): 190 ± 18^3 μmol/day/kg
- % change in fecal bile acid (Male beagle dogs [1]; compound A-5 6.0 mg/kg/day per os): (674) %
- FECAL BILE ACID CONCENTRATION (Male beagle dogs [1]; compound A-5 6.0 mg/kg/day per os, Week 2, mean ± SEM): 209 ± 27^3 μmol/day/kg
- FECAL BILE ACID CONCENTRATION (Male beagle dogs [1]; compound A-5 6.0 mg/kg/day per os, Week 3, mean ± SEM): 179 ± 16^3 μmol/day/kg
- % change in fecal bile acid concentration from Week 0 (Male beagle dogs [1]; compound A-5 monotherapy 4.0 mg/kg/day, dosed Weeks 5-8, Week 5): (+293)^4%
- FECAL BILE ACID CONCENTRATION (Male beagle dogs [1]; [3]): 106 ± 13^3 μmol/kg/day
- % change in fecal bile acid concentration from Week 0 (Male beagle dogs [1]; compound A-5 monotherapy 4.0 mg/kg/day, dosed Weeks 5-8, Week 6): (+374) %
- FECAL BILE ACID CONCENTRATION (Male beagle dogs [1]; [4]): 128 ± 17^3 μmol/kg/day
- % change in fecal bile acid concentration from Week 0 (Male beagle dogs [1]; compound A-5 monotherapy 4.0 mg/kg/day, dosed Weeks 5-8, Week 7): (+578) %
- FECAL BILE ACID CONCENTRATION (Male beagle dogs [1]; [5]): 183 ± 39^3 μmol/kg/day
- FECAL BILE ACID CONCENTRATION (Male beagle dogs [1]; [6]): 109 ± 23^3 μmol/kg/day
- % change in fecal bile acid concentration from Week 0 (Male beagle dogs [1]; compound A-5 monotherapy group, dosing terminated after Week 8, Week 9): (+48) %
- FECAL BILE ACID CONCENTRATION (Male beagle dogs [1]; [7]): 40 ± 6 µmol/kg/day
- % change in fecal bile acid concentration from Week 0 (Male beagle dogs [1]; compound A-5 monotherapy group, dosing terminated after Week 8, Week 10): (+59) %
- FECAL BILE ACID CONCENTRATION (Male beagle dogs [1]; [8]): 43 ± 4 µmol/kg/day
- TOTAL SERUM TRIGLYCERIDE (Male beagle dogs [2]; [3]): 37 ± 3 mg/dL
- TOTAL SERUM TRIGLYCERIDE (Male beagle dogs [2]; [4]): 32 ± 3 mg/dL
- TOTAL SERUM TRIGLYCERIDE (Male beagle dogs [2]; [5]): 36 ± 3 mg/dL
- TOTAL SERUM TRIGLYCERIDE (Male beagle dogs [2]; [6]): 34 ± 3 mg/dL
- TOTAL SERUM TRIGLYCERIDE (Male beagle dogs [2]; [7]): 39 ± 3 mg/dL
- TOTAL SERUM TRIGLYCERIDE (Male beagle dogs [2]; [8]): 42 ± 4 mg/dL
- TOTAL SERUM TRIGLYCERIDE (Male beagle dogs [2]; compound A-5 monotherapy group, dosing terminated after Week 8, Week 11, mean ± SEM): 34 ± 3 mg/dL
- TOTAL SERUM TRIGLYCERIDE (Male beagle dogs [2]; compound A-5 monotherapy group, dosing terminated after Week 8, Week 12, mean ± SEM): 51 ± 5 mg/dL
- TOTAL SERUM TRIGLYCERIDE (Male beagle dogs [2]; compound A-5 monotherapy group, dosing terminated after Week 8, Week 13, mean ± SEM): 46 ± 3 mg/dL
